Laboratory results from PubChem BioAssay AID179 (DTP/NCI, 2004).
The source made the active and inactive calls.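 The calls were made as follows: active = compounds giving half or more protection of infected cells from virus-caused growth loss, again on retest; inactive = the rest.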

Test system: CEM cells HIV-1 protection, formazan growth assay
Experiment: NCI AIDS Antiviral Assay
Conditions: for IC50: measured here: growth of uninfected CEM cells
Procedure, shortened: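 Steps: treat uninfected and HIV-1-infected human CEM cells at five drug levels; quantify growth by soluble formazan; retest any compound reaching 50% protection; classify actives from the retest.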

Structure (SMILES)	EC50	IC50	outcome
CC(C)c1cc(C(=O)[O-])c(O)c(C(C)C)c1.CC(C)c1cc(C(=O)[O-])c(O)c(C(C)C)c1.CC(C)c1cc(C(=O)[O-])c(O)c(C(C)C)c1.CC(C)c1cc(C(=O)[O-])c(O)c(C(C)C)c1.CC(C)c1cc(C(=O)[O-])c(O)c(C(C)C)c1.CC(C)c1cc(C(=O)[O-])c(O)c(C(C)C)c1.[Cu+2].[Mn+2].[Mn+2]	> 21.4 µM	10.7 µM	–
Cc1[nH]nc2c(N(C)C)ncnc12	> 200 µM	170 µM	–
CC(=O)Nc1ccc(S(=O)(=O)c2nnc(NC(C)=O)s2)cc1	> 741 µM	331 µM	–
CN(C)C=NCC(O)c1ccccc1 (stereo not drawn)	> 200 µM	> 200 µM	–
Cc1ccc2c(c1C)CC1(Cc3ccc(C)c(C)c3C1=O)C2=O (stereo not drawn)	> 100 µM	> 100 µM	–
NC(=O)c1[nH]cnc1/N=N/SCC(N)C(=O)O (stereo not drawn)	> 200 µM	0.794 µM	–
CN(C)CC1CCC/C(=C\c2ccccc2)C1=O (stereo not drawn)	> 200 µM	0.708 µM	–
NC1=C(c2nc(-c3ccccc3)cs2)C(c2ccco2)c2c(c3ccccc3oc2=O)O1 (stereo not drawn)	> 200 µM	93.3 µM	–
Fc1cccc(F)c1C1SCc2nc3cc(Cl)c(Cl)cc3n21 (stereo not drawn)	120 µM	195 µM	–
O=C1/C(=C\c2cccc(Oc3ccccc3)c2)S(=O)(=O)C(c2ccccc2)N1c1cccc(Cl)c1 (stereo not drawn)	> 200 µM	12.9 µM	–
Clc1ccc(SC(/C=C/NNC2=NC(c3ccccc3)C(c3ccccc3)=NN2)c2ccccc2)cc1 (stereo not drawn)	> 7.24 µM	5.62 µM	–
CO[C@@H]1[C@@H](OC2OC(C)C(OC3CC(C)(O)C(OC(=O)CC(C)C)C(C)O3)C(N(C)C)C2O)[C@@H](CC=O)C[C@@H](C)C(=O)/C=C/C2O[C@H]2C[C@@H](C)OC(=O)C[C@H]1OC(C)=O (stereo partly drawn)	> 148 µM	7.76 µM	–
O=S1(=O)CS(=O)(=O)CS(=O)(=O)C1	> 200 µM	89.1 µM	–
CC(=O)OCC1OC(SC2=NC(=O)/C(=C/c3ccccc3)S2)C(OC(C)=O)C(OC(C)=O)C1OC(C)=O (stereo not drawn)	> 200 µM	32.4 µM	–
COC(=O)C(CNC(=O)/C=C/c1ccc(OC(C)=O)c(OC(C)=O)c1)NC(=O)/C=C/c1ccc(OC(C)=O)c(OC(C)=O)c1 (stereo not drawn)	> 200 µM	36.3 µM	–
Cc1ncc(CO)c(CO)c1OCC(O)CN1CCN(c2ccc(F)cc2)CC1 (stereo not drawn)	> 200 µM	97.7 µM	–
C/C(C/C(C)=N\N=C(N)N)=N/N=C(N)N	> 200 µM	> 200 µM	–
CCOC(=O)[C@@]12C3C=CC(CC3)[C@]1(C(=O)c1ccccc1)C(=O)C(=O)N2c1ccccc1 (stereo partly drawn)	> 200 µM	110 µM	–
COc1ccc(OC)c2c1C=CC(Br)=CC2	> 200 µM	53.7 µM	–
COc1cccc(NC(=O)N/C(=C/c2ccc(N(CCC#N)CCC#N)cc2)NC(=O)c2cc([N+](=O)[O-])ccc2Cl)c1	> 12.3 µM	11.5 µM	–
O=c1ccc2c(-c3ccccc3O)c3ccc(O)cc3oc-2c1	> 95.5 µM	17.4 µM	–
O=C(O)\C=C/C=C/C=C/C=C/C(=O)O	126 µM	135 µM	–
O=C(O)C(SC(=S)c1ccc(C(=S)SC(C(=O)O)c2ccccc2)cc1)c1ccccc1 (stereo not drawn)	–	–	inactive
C[C@]12Cc3cn[nH]c3C(=O)C1CC[C@@H]1C2CC[C@@]2(C)C1CC[C@@H]2O (stereo partly drawn)	20 µM	21.9 µM	–
Cc1ccc(S(=O)(=O)N/N=C(\c2nc3ccc(Cl)cc3[nH]c2=O)C(O)c2ccco2)cc1 (stereo not drawn)	> 275 µM	17 µM	–
COc1ccc(NC(=O)C(=O)c2c(O)c3ccc(O)cc3oc2=O)c([N+](=O)[O-])c1	> 447 µM	229 µM	–
CCN(CC)CCn1c2ccccc2c(=O)c2c(O)ccc(O)c21	–	–	inactive
O=C1C[C@H]2[C@H](c3ccc(Br)cc3)[C@H]3C(=O)c4ccccc4NC(=O)[C@@H]3[C@@]2(O)c2ccccc2N1	> 200 µM	77.6 µM	–
CC(C)CCCC(C)C1CCC2[C@@H]3CCC4C[C@@H](CCCO)CC[C@]4(C)C3CC[C@]12C (stereo partly drawn)	> 4.37 µM	> 4.37 µM	–
CCOc1cnc([C@H]2CCC3[C@@H]4CC=C5C[C@@H](OC(=O)CCC(=O)O)CC[C@]5(C)C4CC[C@@]32C)s1 (stereo partly drawn)	> 50.1 µM	32.4 µM	–
